The values that follow come from patent US20240389528A1, “PERFORMANCE GAIN IN ALS INHIBITOR HERBICIDE TOLERANT BETA VULGARIS PLANTS BY COMBINATION OF BEST FITTING ALS LARGE AND SMALL SUBUNITS” (BAYER AKTIENGESELLSCHAFT, priority 2021, published 2024).

The subject of this experiment is B. vulgaris plants comprising the BvALS_W569L allele. In words: Sensitivity of Beta vulgaris plants to ALS inhibitor herbicide (BvALS_W569L allele vs wild type allele). The format is in vivo.

For `COc1cc(OC)nc(NC(=O)NS(=O)(=O)c2cc(NC=O)ccc2C(=O)N(C)C)n1` [foramsulfuron], the “times less sensitive to the ALS inhibitor herbicide compared to B. vulgaris plants comprising a BvALS wild type allele” value is “at least 2000 times”.
